This is an account of results in ChEMBL document CHEMBL1151205, “Terpene isocyanides, isocyanates, and isothiocyanates from the Okinawan marine sponge Stylissa sp” (J Nat Prod, 2004).

For this test, the system named is HeLa. Description: Cytotoxicity against human HeLa cells by WST-8 assay. Type of test: functional, cell-based. In general terms: Formazan colour is commonly taken as a measure of viable cells.
As to `C[C@H]1C[C@H]2CC(C)(C)CC3=CC[C@@]4(N=C=S)[C@@H]([C@@H]1CC[C@@H]4C)[C@@H]32`, half-maximal inhibition (IC50) was put at 88.7 µM.
In the case of `C[C@H]1C[C@H]2CC(C)(C)CC3=CC[C@@]4(N=C=O)[C@@H]([C@@H]1CC[C@@H]4C)[C@@H]32` it was 38.3 µM; in that of `CC1=C[C@@H]2[C@@H](CC1)[C@@](C)(N=C=S)CC[C@H]2C(C)C` (relative stereo), 73.7 µM.
In the case of `[C-]#[N+][C@@]1(C)CC[C@H]2[C@@H]3[C@@H](C(C)=CC[C@@H]31)[C@@H](C=C(C)C)C[C@@H]2C` (relative stereo) it was 20 µM.
In the case of `C[C@H]1CC[C@]23[C@H]1[C@H]2[C@@H](C(C)(C)N=C=S)CC[C@@H]3C` (relative stereo) it was 57.8 µM; in that of `[C-]#[N+][C@@]12CC[C@H](C)C3=C(C=C(C)C)C[C@H](C)[C@@H](CC[C@@H]1C)[C@@H]32` (relative stereo), 11.2 µM.

A word on the IC50: it is the concentration that inhibits the measured activity by half. Low values mean higher potency, high ones lower potency.
